Data taken from US6815546B2, “Analogues of camptothecin, their use as medicaments and the pharmaceutical compositions containing them” (Societe de Recherches et d'Applications Scientifiques …, priority 1995, dated 2004).

Experiments:
Type in all cases: cell-based
[1] = test system: U373 (human glioblastoma); experiment: Test on cell proliferation (MTT test), U373; settings: 72 hours
Procedure: (§1) a. Eight tumoral cell lines are used in this study: L1210 (mouse lymphocytic leukemia), HCT15 and LOVO (cell lines of human colon adenocarcinoma), A549 (human lung carcinoma), A172, U373 et U87 (human glioblastoma). All these lines are obtained from the American Type Culture Collection (ATCC), Rockville, Md. The L1210 cell cultures in suspension are cultured in Dulbecco's modified Eagle's medium (DMEM) (BioWhitaker, Verviers, Belgium) together with 10% of foetal calf serum inactivated by heating, 2 mM of glutamine, 50 μg/ml of penicillin and 50 μg/ml of streptomycin. The HT29 cells are cultured in mono-layer cultures in a McCoy 5a medium (Gibco, Paisley, United Kingdom) together with 10% of foetal calf serum inactivated by heat plus 2 mM of glutamine and 50 μg/ml of gentamycin. The other cells are cultured in an Earle's modified essential medium (EMEM; Gibco, Paisley, United Kingdom) together with 5% foetal calf serum inactivated by heat, 2 mM of glutamine, 50 U/ml of penicillin and 50 μg/ml of streptomycin. All the cell lines are cultured at 37° C. in a humidified atmosphere containing 95% air and 5% CO2.
(§2) Inhibition of the tumor cell line proliferation is determined using an MTT test. 1500 L1210 cells in a culture medium (according to the needs of the cell medium) are seeded in a well of a micro-well plate (tissue culture level: 96 wells, flat bottom) 24 hours before treatment with the compounds to be tested. For these dose-response studies, the cells are incubated with each of the compounds to be tested or their corresponding solvent (controls) for 48 hours over a final concentration range of 1.10^−10 to 1.10^−4 M. All the compounds are dissolved just before use in dimethylsulphoxide (DMSO) at a concentration of 50 mM. Other dilutions of the medicaments are carried out in the culture medium. The final concentration of DMSO never exceeds 0.2% (v/v). As controls, the solutions of medicaments are replaced with the solvent which is diluted successively in the same way as the compounds to be tested.
(§3) After the incubation period, the labeling reagent MTT (3-[4,5-dimethylthiazol-2-yl]-2,5-diphenyltetrazolium bromide; Thiazol blue, Sigma M 565, Sigma, St Louis, Mo.) is added at a final concentration of 0.3 mg/ml to each well. The cells are incubated for 4 hours at 37° C. in a humidified atmosphere. This stage allows the mitochondrial dehydrogenase of the living cells to convert the yellow tetrazolium salt MTT into crimson formazan crystals. The supernatant part is eliminated and the formazan crystals formed are solubilized with DMSO. The resultant coloured solution is quantified by absorbance at 570 nm by using a multi-cuvette scanning spectrophotometer. The data concerning the proliferation is expressed as a percentage of living cells in the treated wells, divided by the living cells in the controls. Each point represents the average of three independent experiments, each experiment represents six determinations.
(§4) For the other cell lines (HCT15, LOVO, A549, A172, U373, U87), 1000 to 2000 cells are seeded in the well of a micro-well plate 24 hours before medicinal treatment. […]
(§5) The results are expressed as percentages of the calculated proliferation by the optical density (OD) of the cells treated with a medicament divided by the OD of the control cells (cells treated with DMSO). As represented in Table II, the compounds to be tested have inhibited the proliferation of cells in a dose-dependent manner.

[2] = test system: L1210 (mouse lymphocytic leukemia); experiment: Test on cell proliferation (MTT test), L1210; settings: 48 hours
Procedure: as §1, §2, §3, §5

U87 (human glioblastoma) = experiment: Test on cell proliferation (MTT test), U87; settings: 72 hours
Procedure: as §1, §2, §3, §4, §5

[3] = test system: A172 (human glioblastoma); experiment: Test on cell proliferation (MTT test), A172; settings: 72 hours
Procedure: as §1, §2, §3, §4, §5

[4] = test system: LOVO (cell lines of human colon adenocarcinoma); experiment: Test on cell proliferation (MTT test), LOVO; settings: 72 hours
Procedure: as §1, §2, §3, §4, §5

[5] = test system: HCT15 (cell lines of human colon adenocarcinoma); experiment: Test on cell proliferation (MTT test), HCT15; settings: 72 hours
Procedure: as §1, §2, §3, §4, §5

[6] = test system: A549 (human lung carcinoma); experiment: Test on cell proliferation (MTT test), A549; settings: 72 hours
Procedure: as §1, §2, §3, §4, §5

CCc1c2c(nc3ccccc13)-c1cc(C(O)(CC)CC(=O)O)c(CO)c(=O)n1C2 (stereo not shown) [Example 10, 3-[12-ethyl-8-(hydroxymethyl)-9-oxo-9,11-dihydroindolizino[1,2-b]quinolin-7-yl]-3-hydroxypentanoic acid]
PERCENTAGE OF CELL PROLIFERATION ([1]; 0.1 nM): 96.00%
PERCENTAGE OF CELL PROLIFERATION ([1]; 1 nM): 104.00%
PERCENTAGE OF CELL PROLIFERATION ([1]; 10 nM): 87.00%
PERCENTAGE OF CELL PROLIFERATION ([1]; 100 nM): 35.00%
PERCENTAGE OF CELL PROLIFERATION ([1]; 1 000 nM): 20.00%
PERCENTAGE OF CELL PROLIFERATION ([1]; 10 000 nM): 10.00%
PERCENTAGE OF CELL PROLIFERATION ([1]; 100 000 nM): 2.00%
PERCENTAGE OF CELL PROLIFERATION ([2]; 0.1 nM): 91.51%
PERCENTAGE OF CELL PROLIFERATION ([2]; 1 nM): 97.94%
PERCENTAGE OF CELL PROLIFERATION ([2]; 10 nM): 89.28%
PERCENTAGE OF CELL PROLIFERATION ([2]; 100 nM): 67.32%
PERCENTAGE OF CELL PROLIFERATION ([2]; 1 000 nM): 31.51%
PERCENTAGE OF CELL PROLIFERATION ([2]; 10 000 nM): 19.78%
PERCENTAGE OF CELL PROLIFERATION ([2]; 100 000 nM): 3.65%
PERCENTAGE OF CELL PROLIFERATION (U87 (human glioblastoma); 0.1 nM): 96.00%
PERCENTAGE OF CELL PROLIFERATION (U87 (human glioblastoma); 1 nM): 79.00%
PERCENTAGE OF CELL PROLIFERATION (U87 (human glioblastoma); 10 nM): 89.00%
PERCENTAGE OF CELL PROLIFERATION (U87 (human glioblastoma); 100 nM): 17.00%
PERCENTAGE OF CELL PROLIFERATION (U87 (human glioblastoma); 1 000 nM): 6.00%
PERCENTAGE OF CELL PROLIFERATION (U87 (human glioblastoma); 10 000 nM): 5.00%
PERCENTAGE OF CELL PROLIFERATION (U87 (human glioblastoma); 100 000 nM): 2.00%
PERCENTAGE OF CELL PROLIFERATION ([3]; 0.1 nM): 93.00%
PERCENTAGE OF CELL PROLIFERATION ([3]; 1 nM): 92.00%
PERCENTAGE OF CELL PROLIFERATION ([3]; 10 nM): 91.00%
PERCENTAGE OF CELL PROLIFERATION ([3]; 100 nM): 60.00%
PERCENTAGE OF CELL PROLIFERATION ([3]; 1 000 nM): 39.00%
PERCENTAGE OF CELL PROLIFERATION ([3]; 10 000 nM): 15.00%
PERCENTAGE OF CELL PROLIFERATION ([3]; 100 000 nM): 3.00%
PERCENTAGE OF CELL PROLIFERATION ([4]; 0.1 nM): 71.00%
PERCENTAGE OF CELL PROLIFERATION ([4]; 1 nM): 76.00%
PERCENTAGE OF CELL PROLIFERATION ([4]; 10 nM): 77.00%
PERCENTAGE OF CELL PROLIFERATION ([4]; 100 nM): 52.00%
PERCENTAGE OF CELL PROLIFERATION ([4]; 1 000 nM): 29.00%
PERCENTAGE OF CELL PROLIFERATION ([4]; 10 000 nM): 18.00%
PERCENTAGE OF CELL PROLIFERATION ([4]; 100 000 nM): 4.00%
PERCENTAGE OF CELL PROLIFERATION ([5]; 0.1 nM): 111.00%
PERCENTAGE OF CELL PROLIFERATION ([5]; 1 nM): 87.00%
PERCENTAGE OF CELL PROLIFERATION ([5]; 10 nM): 103.00%
PERCENTAGE OF CELL PROLIFERATION ([5]; 100 nM): 63.00%
PERCENTAGE OF CELL PROLIFERATION ([5]; 1 000 nM): 42.00%
PERCENTAGE OF CELL PROLIFERATION ([5]; 10 000 nM): 17.00%
PERCENTAGE OF CELL PROLIFERATION ([5]; 100 000 nM): 9.00%
PERCENTAGE OF CELL PROLIFERATION ([6]; 0.1 nM): 71.00%
PERCENTAGE OF CELL PROLIFERATION ([6]; 1 nM): 76.00%
PERCENTAGE OF CELL PROLIFERATION ([6]; 10 nM): 71.00%
PERCENTAGE OF CELL PROLIFERATION ([6]; 100 nM): 56.00%
PERCENTAGE OF CELL PROLIFERATION ([6]; 1 000 nM): 36.00%
PERCENTAGE OF CELL PROLIFERATION ([6]; 10 000 nM): 22.00%
PERCENTAGE OF CELL PROLIFERATION ([6]; 100 000 nM): 7.00%
